Laboratory results published in patent US9102636B2, “Analgesic compounds, compositions, and uses thereof” (Galleon Pharmaceuticals, Inc., priority 2010, dated 2015).
“And” between values parts separate entries of the source, which are not always exact repeats. Identical values can stand only once. “Also recorded” adds a separate entry of the source.

Key:
PC12 cells = test: Inhibition of peroxynitrite (SIN-1) mediated cytotoxicity, ATPlite; format: cell-based; details: Rattus norvegicus, PC-12, SIN-1 overnight, average of two plates
Text: ATPlite is an Adenosine TriPhosphate monitoring system based on firefly luciferase. ATP monitoring was used as a measure of PC12 cell viability, as it is present in all metabolically active cells and its concentration very rapidly declines as cells undergo necrosis and apoptosis. ATPlite is based upon the production of light given off during the reaction of ATP & D-Luciferin in the presence of Luciferase. The emitted light is proportional to the ATP concentration. Compounds of the invention were assessed for their ability to inhibit SIN-1 induced cell toxicity. Inhibitory concentrations, IC50 values, were calculated by testing compounds of the invention at various concentrations and averaging the IC50 of two plates.
All cell work was carried out under the cell culture hood in a sterile environment. […] The cells were counted in the 4 large corner quadrants of the hemacytometer under the inverted microscope at 10× and the average of the 4 quadrants was calculated. Blue cells were not counted as these cells represented non-viable cells. The number of cells present in 1 mL of media was determined using the following equation: cells/mL=(# cells counted/# squares counted)×10^4×dilution factor. […]
On Day 3, 10.25 ml of ATPlite buffer was added to 1 vial of lyophilized substrate solution (ATPlite 1 step luminescence ATP detection Assay system (Perkin Elmer, #6016731)). […]

[1] = tested on: Carrageenan-induced thermal hyperalgesia; test: Carrageenan-induced thermal hyperalgesia (Hargreaves); format: in vivo, rat; details: for Paw withdrawal latency: Pre-Cg, individual rats, FIG. 21A
Method: The effect of Compound 2 in the rat carrageenan model of acute inflammatory pain was evaluated. The intraplantar carrageenan model of acute inflammatory pain in the rat results in behaviors similar to that observed in patients and has been widely used to assess novel pharmacological treatments (Whiteside et al., 2005, J. Pharmacol. Exp. Ther. 314:1234-1240). The objective of this study was to evaluate the ability of Compound 2 to reverse or prevent development of thermal hyperalgesia and edema in the rat carrageenan model of acute inflammatory pain. The positive control was indomethacin (Sigma, St. Louis), and the negative control was vehicle (0.5% methyl cellulose). […] The Hargreaves apparatus was obtained from Ugo Basile, Italy, and the lamba-carrageenan was obtained from Sigma, St. Louis. For this assay, paw withdrawal latency to a thermal stimulus was assessed using a radiant heat source (Ugo Basile, Italy) aimed at the plantar surface of the left hind paw (Hargreaves test). […] Paw volume was measured by displacement of water and assuming a tissue density equal to that of water. Baseline latencies were taken prior to carrageenan administration and re-assessed 4 h later. Compound 2 or vehicle was administered (10 and 30 mg/kg, p.o.) 3 hrs after carrageenan (curative) and behavior assessed 1 hr later. […] Indomethacin (positive control, 30 mg/kg p.o.) was administered prior to carrageenan and behavior assessed 4 hrs post-carrageenan. […] After induction of anesthesia, the injection site was prepared in a sterile manner and 50 μl of a 2% Jamba-carrageenan was injected. After injection, animals were weighed and allowed to recover before being returned to their home cages. Statistical significance was determined on untransformed data using a two-way analysis of variance (Graphpad Prism, NC). Significant main effects were analyzed further by subsequent Bonferronni post-hoc test. The level of significance was set at p<0.05. Data are shown as mean±S.E.M. (with an asterisk to denote significance as compared to vehicle treated controls).

[2] = tested on: spinal nerve ligation induced tactile allodynia; test: Spinal nerve ligation (SNL, Chung model) induced tactile allodynia (von Frey filaments); format: in vivo, rat; details: for Paw threshold / Paw withdrawal threshold: individual animals; for Paw withdrawal threshold: non-fasted

In the case of `CC1(C)SC(Nc2ccccc2O)=N[C@@H]1C(=O)O` [Compound 2, (R)-2-(2-hydroxyphenylamino)-thiazoline-5,5-dimethyl-4-carboxylic acid], the IC50 (PC12 cells) is reported as 3.7 µM, the “Paw withdrawal latency” value ([1]; compound 2 10 mg/kg group, 10 mg/kg) is reported as 19.8 s and 15.34 s and 22.07 s and 17.39 s and 31.03 s and 14.07 s and the “Paw withdrawal latency” value ([1]; compound 2 30 mg/kg group, 30 mg/kg) is reported as 23.87 s and 12.41 s and 16.08 s and 28.86 s and 18.1 s and 22.77 s and 17.58 s. The “carrageenan-induced thermal hyperalgesia, curative (finding in words)” value ([1]; rat, 10 and 30 mg/kg p.o. 3 hours post-carrageenan) was “without significantly reversing thermal hyperalgesia; also recorded: did not significantly reverse thermal hyperalgesia”, the “Paw threshold” value ([2]; FIG. 25, compound 2 30 mg/kg p.o. once on the day of surgery, 1 wk, 30 mg/kg) was 1.85 g and 1.18 g and 2.81 g and 4.47 g and 6.4 g and 2.2 g and 15 g and 4.25 g and the “Paw threshold” value ([2]; FIG. 25, compound 2 30 mg/kg p.o. once on the day of surgery, 2 wks, 30 mg/kg) was 1.65 g and 2.81 g and 2 g (2×) and 3.73 g and 0.99 g and 5.56 g and 5.04 g. The “Paw threshold” value ([2]; FIG. 25, compound 2 30 mg/kg p.o. once on the day of surgery, Pre-Sx) was 15 g, the “Paw threshold” value ([2]; FIG. 26, compound 2 30 mg/kg p.o. QD on days 1-5 post-surgery, 1 wk, 30 mg/kg) was 15 g (4×) and 11.41 g and 3.13 g and 1.18 g and 6.66 g and the “Paw threshold” value ([2]; FIG. 26, compound 2 30 mg/kg p.o. QD on days 1-5 post-surgery, 2 wks, 30 mg/kg) was 13.96 g (2×) and 4.25 g and 5.37 g and 11.69 g and 2.8 g and 8.44 g and 7.94 g. The “Paw threshold” value ([2]; FIG. 26, compound 2 30 mg/kg p.o. QD on days 1-5 post-surgery, 3 wks, 30 mg/kg) was 7.53 g and 6.64 g and 4.98 g and 2.2 g and 4.4 g and 2.38 g and 10.31 g and 15 g, the “Paw threshold” value ([2]; FIG. 26, compound 2 30 mg/kg p.o. QD on days 1-5 post-surgery, Pre-Sx, 30 mg/kg) was 15 g (7×) and 11.69 g and the “Paw withdrawal threshold” value ([2]; compound 2 10 mg/kg p.o., 1 hr (D1), 10 mg/kg) was 1.56 g and 4.98 g and 4.25 g (2×) and 15 g and 3.13 g and 2.81 g and 4.4 g. The “Paw withdrawal threshold” value ([2]; compound 2 10 mg/kg p.o., 1 hr (D2), 10 mg/kg) was 1.31 g and 1.85 g (3×) and 2.38 g and 2.64 g and 1.65 g and 1.4 g, the “Paw withdrawal threshold” value ([2]; compound 2 10 mg/kg p.o., 1 hr (D3), 10 mg/kg) was 0.44 g and 3.67 g and 1.85 g and 7.94 g and 3.33 g and 2 g and 2.81 g and 4.4 g and the “Paw withdrawal threshold” value ([2]; compound 2 10 mg/kg p.o., 3 hrs (D1), 10 mg/kg) was 2 g and 7.94 g and 1.4 g and 15 g and 2.81 g and 2.64 g and 1.85 g and 3.57 g. The “Paw withdrawal threshold” value ([2]; compound 2 10 mg/kg p.o., 3 hrs (D2), 10 mg/kg) was 0.4 g and 1.56 g (2×) and 11.69 g and 2.81 g and 2.37 g and 2 g and 3.71 g, the “Paw withdrawal threshold” value ([2]; compound 2 10 mg/kg p.o., 3 hrs (D3), 10 mg/kg) was 0.99 g and 2.37 g and 1.56 g and 2.38 g and 2.81 g (2×) and 0.65 g and 3.33 g and the “Paw withdrawal threshold” value ([2]; compound 2 10 mg/kg p.o., Pre-Drug, 10 mg/kg) was 2.2 g and 3.13 g (2×) and 4.25 g and 3.58 g and 3.73 g and 4.4 g and 2.64 g. The “Paw withdrawal threshold” value ([2]; compound 2 10 mg/kg p.o., Pre-Sx, 10 mg/kg) was 11.69 g and 15 g (7×), the “Paw withdrawal threshold” value ([2]; compound 2 50 mg/kg p.o., 1 hr (D1), 50 mg/kg) was 2.81 g (2×) and 6.64 g and 5.56 g (2×) and 3.67 g and 4.23 g and 4.98 g and the “Paw withdrawal threshold” value ([2]; compound 2 50 mg/kg p.o., 1 hr (D2), 50 mg/kg) was 1.19 g and 2.81 g and 3.12 g and 7.94 g. The “Paw withdrawal threshold” value ([2]; compound 2 50 mg/kg p.o., 3 hrs (D1), 50 mg/kg) was 1.18 g and 3.13 g (2×) and 3.33 g and 6.66 g (2×) and 6.64 g and 4.7 g, the “Paw withdrawal threshold” value ([2]; compound 2 50 mg/kg p.o., Pre-Drug, 50 mg/kg) was 2.81 g (2×) and 3.33 g and 3.73 g and 2.2 g and 5.04 g and 4.25 g and 3.58 g and the “Paw withdrawal threshold” value ([2]; compound 2 50 mg/kg p.o., Pre-Sx) was 15 g. The “development of SNL tactile allodynia, single administration” value ([2]; rat, 30 mg/kg p.o. immediately following surgery, assessed 1 and 2 weeks later, FIG. 25) was “a significant difference between treated animals and vehicle controls was not noted”, the “development of SNL tactile allodynia, repeated administration” value ([2]; rat, 30 mg/kg p.o. once a day for 5 days starting on day of surgery, 1, 2 and 3 weeks post surgery, FIG. 26) was “significant reduction in tactile allodynia” and the “reversal of SNL tactile allodynia, fasted animals, subsequent administrations” value ([2]; rat, 50 mg/kg p.o., 48 hrs later, FIG. 24) was “failed to produce a statistically significant effect”. The “reversal of SNL tactile allodynia, non-fasted animals” value ([2]; rat, 10 and 50 mg/kg p.o., any time point after any of three administrations, FIG. 23) was “did not produce a statistically significant difference from vehicle treated animals”.
